Assays:
Assay type in all cases: cell-based, human
[1] = system: MCF7 cell line (ER+ breast cancer); assay: 2D-cell viability assay (Hoechst staining), MCF7 monolayer; conditions: for IC50: Homo sapiens, MCF7, 2D-cell viability assay, MCF7
Excerpt: (§1) As used in the tables, “IC50 (MCF7 mammosphere)” refers to the half maximal inhibitory concentration in the 3D-mammosphere assay, using the ER+ breast cancer cell line, MCF7. The term “IC50 (MCF7 monolayer)” refers to the half maximal inhibitory concentration in the 2D-cell viability assay, using the ER+ breast cancer cell line, MCF7. The term “IC50 (BJ1 monolayer)” refers to the half maximal inhibitory concentration in the 2D-cell viability assay, using the immortalized non-tumoral fibroblast cell line, hTERT-BJ1. The term “SI (mammosphere/monolayer MCF7)” refers to the mammosphere selectivity index, a ratio between IC50 values comparing the biological activity in the 3D and 2D assays against MCF7. The term “SI (BJ1/MCF7 monolayer)” refers to the cancer selectivity index, a ratio between IC50 values comparing the biological activity in the cell viability assays against MCF7 and hTERT-BJ1. A Hoechst-based viability assay was used to characterize the selectivity of compounds according to the present approach, for the preferential targeting of cancer cells. Briefly, MCF7 cell monolayers were treated with a compound at concentrations ranging from 1 μM to 100 μM, for a period of one day. Cell viability was assessed using Hoechst 33342, a nuclear dye that stains DNA in live cells. The viability of normal human fibroblasts (hTERT-BJ1) treated with the compounds described herein was also assessed in parallel. Quantitation was performed with a plate-reader.

[2] = system: MCF7 cell line (ER+ breast cancer); assay: 3D-mammosphere formation assay; conditions: for IC50: Homo sapiens, MCF7, 3D-mammosphere assay; for inhibition of MCF7 cells in the mammosphere assay compared to parent compound: concentrations from 1 μM to 100 μM; for SI (mammosphere/monolayer MCF7): mammosphere selectivity index, ratio between IC50 values in the 3D and 2D assays against MCF7
Excerpt: As used in the tables, “IC50 (MCF7 mammosphere)” refers to the half maximal inhibitory concentration in the 3D-mammosphere assay, using the ER+ breast cancer cell line, MCF7. The term “IC50 (MCF7 monolayer)” refers to the half maximal inhibitory concentration in the 2D-cell viability assay, using the ER+ breast cancer cell line, MCF7. The term “IC50 (BJ1 monolayer)” refers to the half maximal inhibitory concentration in the 2D-cell viability assay, using the immortalized non-tumoral fibroblast cell line, hTERT-BJ1. The term “SI (mammosphere/monolayer MCF7)” refers to the mammosphere selectivity index, a ratio between IC50 values comparing the biological activity in the 3D and 2D assays against MCF7. The term “SI (BJ1/MCF7 monolayer)” refers to the cancer selectivity index, a ratio between IC50 values comparing the biological activity in the cell viability assays against MCF7 and hTERT-BJ1.
FIGS. 1-3 are dose-response curves for various compounds described herein, using the mammosphere assay. The assay was performed using the MCF7 cell line. The curves are plotted as a mean of two independent experiments, and the standard deviation for each point is represented by vertical bars. The inhibition percentage is shown as a function of the log of the concentration (μM). […] Similar effects are expected for compounds having the general formula [1D].
Mammosphere formation assay: A single cell suspension was prepared using enzymatic (1× Trypsin-EDTA, Sigma Aldrich, cat. #T3924), and manual disaggregation (25 gauge needle). Five thousand cells were plated with in mammosphere medium (DMEM-F12/B27/20 ng/ml EGF/PenStrep), under non-adherent conditions, in six wells plates coated with 2-hydroxyethylmethacrylate (poly-HEMA, Sigma, cat. #P3932). Cells were grown for 5 days and maintained in a humidified incubator at 37° C. at an atmospheric pressure in 5% (v/v) carbon dioxide/air. After 5 days, 3D spheroids with a diameter greater than 50 μm were counted using a microscope, fitted with a graticule eye-piece, and the percentage of cells which formed spheroids was calculated and normalized to one (1=100% MFE; mammosphere forming efficiency). Mammosphere assays were performed in triplicate and repeated three times independently.

[3] = system: hTERT-BJ1 (immortalized non-tumoral fibroblast cell line); assay: 2D-cell viability assay (Hoechst staining), hTERT-BJ1 monolayer; conditions: for IC50: Homo sapiens, Fibroblast, 2D-cell viability assay, hTERT-BJ1; for SI (BJ1/MCF7 monolayer): cancer selectivity index, ratio between IC50 values in cell viability assays against MCF7 and hTERT-BJ1
Excerpt: as §1

SMILES: CCCCCCCCCCCCCC(=O)N1CCN(c2ccc(Nc3ncc4cc(C(=O)N(C)C)n(C5CCCC5)c4n3)nc2)CC1 [Compound [1C], 7-cyclopentyl-N,N-dimethyl-2-[[5-(4-tetradecanoylpiperazin-1-yl)-2-pyridyl]amino]pyrrolo[2,3-d]pyrimidine-6-carboxamide]
- potency against MCF7 cells compared to parent compound (dose-response curves) ([1]; Hoechst staining assay, MCF7, FIG. 4 (FIG. 1 cited in same passage)): more potent
- IC50 [1]: ~2 µM
- IC50 ([2]; MCF7): ~0.2 µM
- inhibition of cell propagation ([2]; at concentrations as low as 1 μM, preliminary laboratory evaluations): ~100%
- inhibition of MCF7 cells in the mammosphere assay compared to parent compound [2]: remarkably improved inhibition
- SI (mammosphere/monolayer MCF7) [2]: 10
- fold improvement in potency in the 3D-mammosphere assay compared to the parent compound ([2]; vs. Ribociclib, MCF7): 7 fold
- IC50 [3]: > 90 µM
- SI (BJ1/MCF7 monolayer) [3]: >45

SMILES: CCN1CCN(Cc2ccc(Nc3ncc(F)c(-c4cc(F)c5nc(C)n(C(C)C)c5c4)n3)nc2)CC1 [Abemaciclib]
- IC50 [1]: 11 µM
- IC50 ([2]; MCF7): < 0.04 µM
- SI (mammosphere/monolayer MCF7) [2]: >50
- IC50 ([3]; Table 3, unit inferred): 30 ± 6 µM
- SI (BJ1/MCF7 monolayer) [3]: 2.7

SMILES: CN(C)C(=O)c1cc2cnc(Nc3ccc(N4CCNCC4)cn3)nc2n1C1CCCC1 [Ribociclib, 7-cyclopentyl-N,N-dimethyl-2-[(5-piperazin-1-ylpyridin-2-yl)amino]pyrrolo[2,3-d]pyrimidine-6-carboxamide]
- IC50 [1]: ~2 µM
- IC50 ([2]; MCF7): ~1.5 µM
- SI (mammosphere/monolayer MCF7) [2]: 1.3
- potency on hTERT-BJ1 compared to Compound [1C] (dose-response curves) ([3]; Hoechst staining assay, hTERT-BJ1, FIG. 7): more potent at most concentrations tested
- IC50 [3]: > 90 µM
- SI (BJ1/MCF7 monolayer) [3]: >45

SMILES: CC(=O)c1c(C)c2cnc(Nc3ccc(N4CCNCC4)cn3)nc2n(C2CCCC2)c1=O [Palbociclib, 6-acetyl-8-cyclopentyl-5-methyl-2-(5-piperazin-1-yl-pyridin-2-ylamino)-8H-pyrido[2,3-d]pyrimidin-7-one]
- IC50 [1]: ~0.1 µM
- IC50 ([2]; MCF7): ~0.2 µM
- SI (mammosphere/monolayer MCF7) [2]: non-selective
- IC50 [3]: > 90 µM
- SI (BJ1/MCF7 monolayer) [3]: >900

SMILES: CCCCCCCCCCCCCC(=O)N1CCN(c2ccc(Nc3ncc4c(C)c(C(C)=O)c(=O)n(C5CCCC5)c4n3)nc2)CC1 [Compound [2C], 6-acetyl-8-cyclopentyl-5-methyl-2-[[5-(4-tetradecanoylpiperazin-1-yl)-2-pyridyl]amino]pyrido[2,3-d]pyrimidin-7-one]
- IC50 [1]: > 30 µM
- non-toxic in the 2D-cell viability assay up to a concentration ([1]; MCF7 monolayer): ≤ 30 µM
- IC50 ([2]; MCF7): ~5.1 µM
- inhibition of MCF7 cells in the mammosphere assay compared to parent compound [2]: remarkably improved inhibition
- SI (mammosphere/monolayer MCF7) [2]: >5
- IC50 [3]: > 90 µM

From patent US12319690B2, “Selective CDK 4/6 inhibitor cancer therapeutics” (LUNELLA BIOTECH, INC., priority 2019, dated 2025)
